Experimental findings from patent US20050148586A1 (priority 2004, published 2005) are described below.

One may read the IC50 as the concentration needed to halve the response being measured. As usually defined, the inhibition is the relative decrease from the control value, in per cent. A low value points to a weak effect.

The target of the experiment is T1, glycogen phosphorylase (from rabbit muscle, Sigma P1261) (Oryctolagus cuniculus, UniProt P00489).
T1 construct: glycogen phosphorylase (from rabbit muscle, Sigma P1261); purchased Sigma P1261; host or cells: rabbit muscle (tissue-derived)
T1 sequence (P00489 2-843 limits assumed): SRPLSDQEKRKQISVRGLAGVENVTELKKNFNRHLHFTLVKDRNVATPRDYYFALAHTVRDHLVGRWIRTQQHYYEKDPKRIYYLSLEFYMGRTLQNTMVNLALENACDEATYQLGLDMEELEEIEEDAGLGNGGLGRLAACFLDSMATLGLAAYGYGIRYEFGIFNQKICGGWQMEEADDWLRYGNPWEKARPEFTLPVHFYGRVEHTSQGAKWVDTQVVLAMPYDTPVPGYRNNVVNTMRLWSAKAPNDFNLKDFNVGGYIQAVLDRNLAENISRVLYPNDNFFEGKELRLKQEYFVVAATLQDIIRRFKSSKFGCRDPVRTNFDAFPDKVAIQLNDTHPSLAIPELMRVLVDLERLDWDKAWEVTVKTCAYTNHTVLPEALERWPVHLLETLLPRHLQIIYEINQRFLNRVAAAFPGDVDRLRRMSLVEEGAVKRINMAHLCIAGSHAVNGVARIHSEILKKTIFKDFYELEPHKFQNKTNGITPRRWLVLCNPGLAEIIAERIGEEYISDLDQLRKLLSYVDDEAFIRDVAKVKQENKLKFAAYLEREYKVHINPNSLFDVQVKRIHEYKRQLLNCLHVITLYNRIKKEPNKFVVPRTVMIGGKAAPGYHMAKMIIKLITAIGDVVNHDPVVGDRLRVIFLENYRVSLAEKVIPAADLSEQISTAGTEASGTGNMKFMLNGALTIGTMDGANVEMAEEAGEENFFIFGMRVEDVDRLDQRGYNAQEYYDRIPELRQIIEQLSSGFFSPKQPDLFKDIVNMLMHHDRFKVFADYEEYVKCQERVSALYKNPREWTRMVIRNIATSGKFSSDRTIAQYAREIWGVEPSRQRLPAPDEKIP
As to the kind of experiment: Enzyme Inhibition Assay (malachite green phosphate readout). Format: biochemical. To be noted: for IC50: +/−.05; for inhibition at 20 µM: @ 20 μM test compound, percent inhibition (±10%) of enzymatic activity. As to the method:
All samples contain 2% DMSO, and the background lacks enzyme but contains all substrates. The reaction was stopped by the addition of […] of a 1N HCl solution containing 10 mg/ml ammonium molybdate and 0.38 mg/ml malachite green. After a 15-minute incubation period to allow the colored reaction (a quantitative measurement of inorganic phosphate) to develop, the colored wells were read at 650 nm. Data was reported as percent inhibition (±10%) of enzymatic activity at a specified concentration.

With `Cn1c(=O)c(Nc2ccc(-n3ccnc3)cc2)nc2ccccc21` [Compound 23, 3-(4-imidazol-1-yl-phenylamino)-1-methyl-1H-quinoxalin-2-one], the IC50 stood at 2500 nM and 20 µM produced 82% inhibition. The compound `Cn1c(=O)c(Nc2ccc(C(=O)Nc3cnccn3)cc2)nc2ccccc21` [Compound 12, 4-(4-Methyl-3-oxo-3,4-dihydro-quinoxalin-2ylamino)-N-pyrazin-2-yl-benzamide] registered a 50% inhibitory concentration (IC50) of 1300 nM and an inhibition at 20 µM of 68%.

Consider `Cn1c(=O)c(Nc2ccc(C(=O)NCc3ccccc3)cc2)nc2ccccc21` [Compound 78, N-Benzyl-4-(4-Methyl-3-oxo-3,4-dihydro-quinoxalin-2ylamino)-benzamide], for which the IC50 came out at 690 nM and the inhibition at 20 µM was found to be 96%. `O=C(O)Cn1c(=O)c(Nc2ccc(C(=O)NCc3cccs3)cc2)nc2ccccc21` [Compound 75, (2-Oxo-3-{4-[(thiophen-2ylmethyl)-carbamoyl]-phenylamino}-2H-quinoxalin-1-yl)-acetic acid] showed a concentration for half-maximal inhibition (IC50) of 5700 nM and an inhibition at 20 µM of 77%.

Consider `Cn1ccc(NC(=O)c2ccc(Nc3nc4ccccc4n(C)c3=O)cc2)n1` [Compound 8], for which the 50% inhibitory concentration (IC50) came out at 890 nM and 20 µM produced 95% inhibition. For `COC(=O)c1ccc(Nc2nc3ccccc3n(CCN3CCOCC3)c2=O)cc1` [Compound 57], in that order: 1800 nM and 89%. Compound `CCn1c(=O)c(Nc2ccc(C(=O)Nc3cc[nH]n3)cc2)nc2ccccc21` [Compound 29, 4-(4-Ethyl-3-oxo-3,4-dihydro-quinoxalin-2ylamino)-N-(1H-pyrazol-3-yl)-benzamide] had an IC50 of 460 nM and an inhibition at 20 µM of 100%. Compound `Cn1c(=O)c(Nc2ccc(NC(=O)c3cccs3)cc2)nc2ccccc21` [Compound 17, Thiophene-2-carboxylic acid[4-(4-Methyl-3-oxo-3,4-dihydro-quinoxalin-2ylamino)-phenyl]-amide] came in with an IC50 of 1500 nM and an inhibition at 20 µM of 70%. With `O=C(Nc1ccon1)c1ccc(Nc2nc3ccccc3n(CCN3CCOCC3)c2=O)cc1` [Compound 55, N-Isoxazol-3-yl-4-[4-(2-Morpholin-4-yl-ethyl)-3-oxo-3,4-dihydro-quinoxalin-2ylamino]-bezamide], the IC50 amounted to 260 nM and the inhibition at 20 µM stood at 97%. `Cn1c(=O)c(Nc2ccc(C(=O)Nc3ccsc3)cc2)nc2ccccc21` [Compound 9, 4-(4-Methyl-3-oxo-3,4-dihydro-quinoxalin-2ylamino)-N-thiophen-3-yl-benzamide] returned an IC50 of 710 nM and an inhibition at 20 µM of 93%.

For the compound `Cn1c(=O)c(Nc2ccc(C(=O)Nc3ccno3)cc2)nc2ccccc21` [Compound 7, N-Isoxazol-5-yl-4-(4-Methyl-3-oxo-3,4-dihydro-quinoxalin-2ylamino)-benzamide], inhibition was half-maximal at 120 nM (IC50) and 20 µM produced 92% inhibition. The compound `Cn1c(=O)c(Nc2ccc(NC(=O)c3cccnc3)cc2)nc2ccccc21` [Compound 16, N-[4-(4-Methyl-3-oxo-3,4-dihydro-quinoxalin-2ylamino)-phenyl]-nicotinamide] showed an IC50 of 800 nM and an inhibition at 20 µM of 97%. In turn, `O=C(NCc1cccs1)c1ccc(Nc2nc3ccccc3n(CCO)c2=O)cc1` [Compound 51] gave an IC50 of 300 nM and an inhibition at 20 µM of 99%. For `CCn1c(=O)c(Nc2ccc(C(=O)Nc3ccon3)cc2)nc2ccccc21` [Compound 28, N-Isoxazol-3-yl-4-(4-Ethyl-3-oxo-3,4-dihydro-quinoxalin-2ylamino)-benzamide], in that order: 120 nM and 100%. Compound `Cn1cccc1C(=O)Nc1ccc(Nc2nc3ccccc3n(C)c2=O)cc1` [Compound 19, 1-Methyl-1H-pyrrole-2-carboxylic acid[4-(4-Methyl-3-oxo-3,4-dihydro-quinoxalin-2ylamino)-phenyl]-amide] displayed a half-inhibitory concentration (IC50) of 5000 nM and an inhibition at 20 µM of 77%.

For the compound `Cn1c(=O)c(Nc2ccc(-c3ccc[nH]3)cc2)nc2ccccc21` [Compound 22, 1-Methyl-3-[4-(1H-pyrrol-2-yl)-phenylamino]-1H-quinoxalin-2-one], inhibition was half-maximal at 2500 nM (IC50) and the inhibition at 20 µM amounted to 92%. Consider `CN(C)CCn1c(=O)c(Nc2ccc(C(=O)NCc3cccs3)cc2)nc2ccccc21` [Compound 70], for which half-maximal inhibition (IC50) required 700 nM and the inhibition at 20 µM was determined as 99%. The matching figures for `CCn1c(=O)c(Nc2ccc(C(=O)Nc3nccs3)cc2)nc2ccccc21` [Compound 30, 4-(4-Ethyl-3-oxo-3,4-dihydro-quinoxalin-2ylamino)-N-thiazol-2-yl-benzamide]: 830 nM and 90%.

`Cn1c(=O)c(Nc2ccc(C(=O)Nc3ccon3)cc2)nc2cccnc21` [Compound 36, N-Isoxazol-3-yl-4-(4-Methyl-3-oxo-3,4-dihydro-pyrido[2,3-b]pyrazin-2-ylamino)-benzamide] displayed an IC50 of 320 nM and an inhibition at 20 µM of 96%. Take `Cn1c(=O)c(Nc2ccc(NC(=O)c3ccco3)cc2)nc2ccccc21` [Compound 18, Furan-2-carboxylic acid[4-(4-Methyl-3-oxo-3,4-dihydro-quinoxalin-2ylamino)-phenyl]-amide]: the IC50 is 2500 nM and the inhibition at 20 µM stood at 80%. Turning to `O=C(NCc1cccs1)c1ccc(Nc2nc3ccccc3n(CCN3CCCCC3)c2=O)cc1` [Compound 62], the inhibition at 20 µM worked out at 95%.
